Measured values taken from ChEMBL document CHEMBL1201862, “PubChem BioAssay data set” (2004).
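Briefly, cells in 96-well plates were exposed to five compound concentrations for 48 h, and endpoints were estimated by linear interpolation. The concentration for 50% growth inhibition is given as GI50.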 Active and inactive are the calls of the source. Cut-off read from the data, not from the text of the source: active = GI50 up to about 1.1 µM and inactive = higher.

Experiments:
Experiment in all cases: inhibition of tumour cell growth, NCI panel, 48 h
786-0 = system: 786-0
A498 = system: A498
A549 = system: A549
ACHN = system: ACHN
BT-549 = system: BT-549
CAKI-1 = system: CAKI-1
DU-145 = system: DU-145
EKVX = system: EKVX
HCC 2998 = system: HCC 2998
HCT-116 = system: HCT-116
HCT-15 = system: HCT-15
HL-60 = system: HL-60
HOP-62 = system: HOP-62
HOP-92 = system: HOP-92
HT-29 = system: HT-29
Hs-578T = system: Hs-578T
IGROV-1 = system: IGROV-1
K562 = system: K562
KM12 = system: KM12
LOX IMVI = system: LOX IMVI
M14 = system: M14
MCF7 = system: MCF7
MDA-MB-231 = system: MDA-MB-231
MDA-MB-435 = system: MDA-MB-435
MDA-N = system: MDA-N
Malme-3M = system: Malme-3M
NCI-H23 = system: NCI-H23
NCI-H460 = system: NCI-H460
NCI-H522 = system: NCI-H522
NCI/ADR-RES = system: NCI/ADR-RES
OVCAR-3 = system: OVCAR-3
OVCAR-4 = system: OVCAR-4
OVCAR-5 = system: OVCAR-5
OVCAR-8 = system: OVCAR-8
PC-3 = system: PC-3
RPMI-8226 = system: RPMI-8226
RXF 393 = system: RXF 393
SF-268 = system: SF-268
SF-295 = system: SF-295
SK-MEL-28 = system: SK-MEL-28
SK-MEL-2 = system: SK-MEL-2
SK-OV-3 = system: SK-OV-3
SN12C = system: SN12C
SNB-19 = system: SNB-19
SNB-75 = system: SNB-75
SR = system: SR
SW-620 = system: SW-620
T47D = system: T47D
TK-10 = system: TK-10
U-251 = system: U-251
UACC-257 = system: UACC-257
UACC-62 = system: UACC-62
UO-31 = system: UO-31
CCRF-CEM = system: CCRF-CEM
COLO 205 = system: COLO 205
MOLT-4 = system: MOLT-4
NCI-H226 = system: NCI-H226
SF-539 = system: SF-539
SK-MEL-5 = system: SK-MEL-5

Measured: GI50

c1ccc2sc(SCCSc3nc4ccccc4s3)nc2c1
> 100 µM: HCT-15
inactive: 786-0 > 100 µM | A498 > 100 µM | A549 > 100 µM | ACHN > 100 µM | BT-549 > 100 µM | CAKI-1 > 100 µM | DU-145 > 100 µM | EKVX > 100 µM | HCC 2998 20.3 µM | HCT-116 > 100 µM | HL-60 65.8 µM | HOP-62 > 100 µM | HOP-92 > 100 µM | HT-29 > 100 µM | Hs-578T > 100 µM | IGROV-1 > 100 µM | K562 > 100 µM | KM12 52.4 µM | LOX IMVI > 100 µM | M14 > 100 µM | MCF7 > 100 µM | MDA-MB-231 > 100 µM | MDA-MB-435 > 100 µM | MDA-N > 100 µM | Malme-3M > 100 µM | NCI-H23 > 100 µM | NCI-H460 > 100 µM | NCI-H522 > 100 µM | NCI/ADR-RES > 100 µM | OVCAR-3 > 100 µM | OVCAR-4 52.1 µM | OVCAR-5 > 100 µM | OVCAR-8 > 100 µM | PC-3 > 100 µM | RPMI-8226 > 100 µM | RXF 393 > 100 µM | SF-268 > 100 µM | SF-295 > 100 µM | SK-MEL-28 > 100 µM | SK-MEL-2 > 100 µM | SK-OV-3 > 100 µM | SN12C > 100 µM | SNB-19 > 100 µM | SNB-75 74.3 µM | SR > 100 µM | SW-620 > 100 µM | T47D > 100 µM | TK-10 > 100 µM | U-251 > 100 µM | UACC-257 > 100 µM | UACC-62 > 100 µM | UO-31 > 100 µM

Cc1cc(C)n(-c2nc(C)c(CCO)c(=O)[nH]2)n1
> 100 µM: HCT-15
inactive: 786-0 > 100 µM | A549 > 100 µM | ACHN > 100 µM | BT-549 > 100 µM | CAKI-1 > 10 µM | CCRF-CEM > 100 µM | COLO 205 > 100 µM | DU-145 > 100 µM | EKVX > 100 µM | HCC 2998 > 100 µM | HCT-116 > 100 µM | HL-60 > 100 µM | HOP-62 > 100 µM | HOP-92 > 100 µM | HT-29 > 100 µM | Hs-578T > 100 µM | IGROV-1 > 100 µM | K562 > 100 µM | KM12 > 100 µM | LOX IMVI > 100 µM | M14 > 100 µM | MCF7 > 100 µM | MDA-MB-231 > 100 µM | MDA-MB-435 > 100 µM | MDA-N > 100 µM | MOLT-4 > 100 µM | Malme-3M > 100 µM | NCI-H226 > 100 µM | NCI-H23 > 100 µM | NCI-H460 > 100 µM | NCI-H522 > 100 µM | NCI/ADR-RES 52 µM | OVCAR-3 > 100 µM | OVCAR-4 > 100 µM | OVCAR-5 > 100 µM | OVCAR-8 > 100 µM | PC-3 > 100 µM | RPMI-8226 > 100 µM | RXF 393 > 100 µM | SF-268 > 100 µM | SF-295 > 100 µM | SF-539 > 100 µM | SK-MEL-28 > 100 µM | SK-MEL-5 > 100 µM | SK-OV-3 > 100 µM | SN12C > 100 µM | SNB-19 > 100 µM | SNB-75 97.5 µM | SR > 100 µM | SW-620 > 100 µM | T47D > 100 µM | TK-10 > 100 µM | U-251 > 100 µM | UACC-257 > 100 µM | UACC-62 > 100 µM | UO-31 > 100 µM

COCC12CCC(OC)C34C5CC6(O)C(OC)CC(OC(C)=O)(C5C6OC(=O)c5ccccc5)C(C(OC)C13)C4N(C)C2 (configuration not stated)
inactive: 786-0 > 100 µM | A498 > 100 µM | A549 > 100 µM | ACHN > 100 µM | BT-549 > 100 µM | CAKI-1 > 100 µM | CCRF-CEM > 100 µM | COLO 205 > 100 µM | DU-145 > 100 µM | EKVX > 100 µM | HCC 2998 > 100 µM | HCT-116 > 100 µM | HL-60 83.8 µM | HOP-62 > 100 µM | HOP-92 > 100 µM | HT-29 > 100 µM | Hs-578T > 100 µM | IGROV-1 > 100 µM | KM12 > 100 µM | LOX IMVI > 100 µM | M14 > 100 µM | MCF7 > 100 µM | MDA-MB-231 > 100 µM | MDA-MB-435 > 100 µM | MDA-N > 100 µM | MOLT-4 > 100 µM | Malme-3M > 100 µM | NCI-H226 > 100 µM | NCI-H23 > 100 µM | NCI-H460 > 100 µM | NCI-H522 > 100 µM | NCI/ADR-RES > 100 µM | OVCAR-3 > 100 µM | OVCAR-4 > 100 µM | OVCAR-5 > 100 µM | OVCAR-8 > 100 µM | PC-3 > 100 µM | RPMI-8226 > 100 µM | RXF 393 > 100 µM | SF-268 > 100 µM | SF-295 > 100 µM | SF-539 > 100 µM | SK-MEL-28 > 100 µM | SK-MEL-2 > 100 µM | SK-MEL-5 > 100 µM | SK-OV-3 43 µM | SN12C > 100 µM | SNB-19 > 100 µM | SR 85.3 µM | SW-620 > 100 µM | T47D > 100 µM | TK-10 > 100 µM | U-251 > 100 µM | UACC-257 > 100 µM | UACC-62 > 100 µM | UO-31 > 100 µM
> 100 µM: HCT-15

CC1(C)[C@@H]2CC[C@@]1(C)CN(CCC[N+](C)(C)C)C2
> 100 µM: HCT-15
inactive: 786-0 > 100 µM | A498 > 100 µM | A549 > 100 µM | ACHN > 100 µM | BT-549 > 100 µM | CAKI-1 > 100 µM | CCRF-CEM > 100 µM | COLO 205 > 100 µM | DU-145 > 100 µM | EKVX > 100 µM | HCC 2998 > 100 µM | HCT-116 > 100 µM | HOP-62 > 100 µM | HOP-92 > 100 µM | HT-29 > 100 µM | Hs-578T > 100 µM | IGROV-1 > 100 µM | K562 > 100 µM | KM12 > 100 µM | LOX IMVI > 100 µM | M14 > 100 µM | MCF7 > 100 µM | MDA-MB-231 > 100 µM | MDA-MB-435 > 100 µM | MDA-N > 100 µM | MOLT-4 > 100 µM | Malme-3M > 100 µM | NCI-H226 > 100 µM | NCI-H23 > 100 µM | NCI-H460 > 100 µM | NCI-H522 > 100 µM | NCI/ADR-RES > 100 µM | OVCAR-3 > 100 µM | OVCAR-4 > 100 µM | OVCAR-5 > 100 µM | OVCAR-8 > 100 µM | PC-3 > 100 µM | RPMI-8226 > 100 µM | RXF 393 > 100 µM | SF-268 > 100 µM | SF-295 > 100 µM | SF-539 > 100 µM | SK-MEL-28 > 100 µM | SK-MEL-2 > 100 µM | SK-MEL-5 > 100 µM | SK-OV-3 > 100 µM | SN12C > 100 µM | SNB-19 > 100 µM | SNB-75 > 100 µM | SR > 100 µM | SW-620 > 100 µM | T47D > 100 µM | TK-10 > 100 µM | U-251 > 100 µM | UACC-257 > 100 µM | UACC-62 > 100 µM | UO-31 > 100 µM

NC(=O)NC(=O)c1cccc(NC(=O)CI)c1
inactive: T47D 1.66 µM
< 0.0159 µM: HCT-15
active: 786-0 < 0.01 µM | A498 0.231 µM | A549 0.805 µM | ACHN < 0.017 µM | BT-549 0.0473 µM | CAKI-1 < 0.01 µM | CCRF-CEM < 0.01 µM | COLO 205 < 0.01 µM | DU-145 0.0344 µM | EKVX 0.863 µM | HCC 2998 0.228 µM | HCT-116 < 0.01 µM | HL-60 < 0.01 µM | HOP-62 0.103 µM | HOP-92 < 0.01 µM | HT-29 < 0.0178 µM | Hs-578T 0.0398 µM | IGROV-1 0.0483 µM | K562 < 0.01 µM | KM12 0.0391 µM | LOX IMVI < 0.0132 µM | MCF7 < 0.01 µM | MDA-MB-231 0.0622 µM | MDA-MB-435 < 0.01 µM | MDA-N < 0.01 µM | MOLT-4 < 0.01 µM | NCI-H226 < 0.0367 µM | NCI-H23 < 0.0212 µM | NCI-H460 0.0485 µM | NCI-H522 < 0.01 µM | NCI/ADR-RES 0.039 µM | OVCAR-3 < 0.01 µM | OVCAR-4 0.148 µM | OVCAR-5 0.151 µM | OVCAR-8 < 0.0123 µM | PC-3 0.0316 µM | RPMI-8226 < 0.0128 µM | RXF 393 0.0513 µM | SF-268 0.0254 µM | SF-295 0.274 µM | SF-539 < 0.0229 µM | SK-MEL-28 0.389 µM | SK-MEL-2 0.0361 µM | SK-MEL-5 < 0.0105 µM | SK-OV-3 0.0607 µM | SN12C < 0.0197 µM | SNB-19 0.646 µM | SNB-75 0.235 µM | SR < 0.01 µM | SW-620 < 0.01 µM | TK-10 < 0.0146 µM | U-251 0.0291 µM | UACC-257 < 0.0252 µM | UACC-62 < 0.0152 µM | UO-31 0.162 µM
